Laboratory results as given in article PMC9820738, “Spectrofluorimetric and Computational Investigation of New Phthalimide Derivatives towards Human Neutrophil Elastase Inhibition and Antiproliferative Activity” (International Journal of Molecular Sciences, 2022).
Where two headings read alike, the source gives them in different places.

Tests used:
[1] = target: T1, human neutrophil elastase (HNE) (Homo sapiens, UniProt P08246); assay: Fluorometric human neutrophil elastase (HNE) inhibition assay, MOSuc-AAPV-AMC substrate; assay type: biochemical; settings: HNE 20 mU/mL, 25 µM substrate, 0.1 M HEPES pH 7.5, 25 °C, triplicate; read-out: IC50 ± SD, elastase inhibitory activity
T1 sequence (P08246 30-267): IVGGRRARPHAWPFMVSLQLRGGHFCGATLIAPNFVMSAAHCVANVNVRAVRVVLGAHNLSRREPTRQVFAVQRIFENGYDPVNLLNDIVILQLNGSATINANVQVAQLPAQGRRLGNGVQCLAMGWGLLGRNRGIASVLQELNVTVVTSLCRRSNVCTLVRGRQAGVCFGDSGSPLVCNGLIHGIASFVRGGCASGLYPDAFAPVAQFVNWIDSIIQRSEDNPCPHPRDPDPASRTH
Experimental: Fluorometric assay for human neutrophil elastase (HNE) inhibition was performed according to the previously presented method with some modifications, using N-methoxysuccinyl-Ala-Ala-Pro-Val-7-amido-4-methyl-coumarin (MOSuc-AAPV-AMC, Calbiochem) as substrate. […] The reaction was carried out in assay buffer containing 0.1 M HEPES (pH 7.5). Briefly, different concentration of tested compounds was incubated with 20 mU/mL of HNE (Bradford) in 25 °C. The reaction was started by addition of 25 µM elastase substrate to final reaction volume 100 µL and monitored for 30 min at 25 °C on a microplate reader (FP-8500 Spectrofluorometer, JASCO, USA) with excitation and emission wavelengths of 380 nm and 440 nm, respectively. By computing the log of inhibitors concentrations versus the percentage of activity, the IC50 values were determined by non-linear regression analysis. Assays were performed in triplicate and data presented as the mean and the standard deviation. Ursolic acid was used as the reference compound.

[2] = system: MDA-MB-231 human breast adenocarcinoma cells; assay: In vitro antiproliferative assay, MDA-MB-231; assay type: cell-based; settings: for IC50: MDA-MB-231, read-out: IC50 ± SD, antiproliferative activity; for SI BALB/3T3/ MDA-MB-231: IC50 in normal cell line / IC50 in cancer cell line
Experimental: (§1) Cell preparation, in vitro antiproliferative assay, MTT and SRB cytotoxic tests were performed according to literature.

[3] = system: UMUC-3 human bladder transitional cell carcinoma cells; assay: In vitro antiproliferative assay, UMUC-3; assay type: cell-based; settings: for IC50: UMUC-3, read-out: IC50 ± SD, antiproliferative activity; for SI BALB/3T3/ UMUC-3: IC50 in normal cell line / IC50 in cancer cell line
Experimental: as §1

[4] = system: MV4-11 human biphenotypic B myelomonocytic leukemia cells; assay: In vitro antiproliferative assay, MV4-11; assay type: cell-based; settings: for IC50: MV4-11, read-out: IC50 ± SD, antiproliferative activity; for SI BALB/3T3/ MV4-11: IC50 in normal cell line / IC50 in cancer cell line
Experimental: as §1

[5] = Spontaneous hydrolysis (chemical stability) in phosphate buffer, spectrophotometric; assay type: physicochemical; settings: 0.05 M phosphate buffer pH 7.3, 25 °C, λ 305 nm
Experimental: Spontaneous compound hydrolysis studies were performed following the literature procedure. The kinetics hydrolysis of the compounds was evaluated at 25 °C in 0.05 M phosphate buffer, pH 7.3, by measuring changes in absorbance spectra during incubation using a T60U spectrophotometer (PG Instruments). The absorbance (At) at characteristic absorption maxima for each compound was measured at 10 min intervals until there was no further decrease in absorbance (Aꝏ). Using these measurements, semilogarithmic plots of the dependence of log(At–Aꝏ) on time were prepared, and k’ values were determined from the slope of these plots according to the first order reaction kinetics. Half-conversion times were calculated using equation: t1/2 = 0.693/k’.

[6] = system: A549 lung carcinoma cells; assay: In vitro antiproliferative assay, A549; assay type: cell-based, human; settings: for IC50: A549, read-out: IC50 ± SD, antiproliferative activity; for SI BALB/3T3/ A549: IC50 in normal cell line / IC50 in cancer cell line
Experimental: as §1

[7] = target: T1, human neutrophil elastase (HNE); assay: Kinetic analysis of the inhibition of elastase (Lineweaver–Burk, secondary plots); assay type: biochemical
Experimental: Kinetic studies were conducted in the presence of different concentrations of substrate (5, 25, 50 and 100 µM) and test compound (in the range of 0–10 µM). The reaction conditions were the same as in the HNE inhibition assay and the reaction was monitored for 10 min at 25 °C with the same Ex an Em wavelengths. By Lineweaver–Burk plots, kinetic values such as Michaelis–Menten constants and maximum velocity were determined. Next, two inhibition constants for inhibitor binding with free enzyme or enzyme–substrate complex (Ki and Kis) were obtained by plotting the secondary plot of the slopes of the determined straight lines or vertical intercept versus inhibitor concentration.

[8] = system: BALB/3T3 normal mouse fibroblast cells; assay: In vitro cytotoxicity on normal fibroblasts, BALB/3T3; assay type: cell-based; settings: BALB/3T3 normal mouse fibroblasts; read-out: IC50 ± SD, antiproliferative activity
Experimental: as §1

| Compound | IC50 [1] [µM] | IC50 ([2]; Homo sapiens) [µM] | SI BALB/3T3/ MDA-MB-231 [2] | IC50 ([3]; Homo sapiens, UMUC3) [µM] | SI BALB/3T3/ UMUC-3 [3] | IC50 ([4]; Homo sapiens) [µM] | SI BALB/3T3/ MV4-11 [4] | k, rate constant of spontaneous hydrolysis [5] [min⁻¹] | half-life ([5]; read-out: t1/2, half-life for the spontaneous hydrolysis) [min] | IC50 ([6]; Homo sapiens) [µM] | SI BALB/3T3/ A549 [6] | melting point [°C] | Inhibition Type ([7]; Lineweaver–Burk and Dixon analysis) | Ki ([7]; inhibitor binding with free enzyme, secondary plot) [µM] | IC50 [8] [µM] | IC50 [2] [µM] | IC50 [3] [µM] | IC50 [4] [µM] | IC50 [6] [µM] |
| --- | --- | --- | --- | --- | --- | --- | --- | --- | --- | --- | --- | --- | --- | --- | --- | --- | --- | --- | --- |
| C[C@H]1[C@H](C)CC[C@]2(C(=O)O)CC[C@]3(C)C(=CC[C@@H]4[C@@]5(C)CC[C@H](O)C(C)(C)[C@@H]5CC[C@]43C)[C@H]12 [Ursolic acid, reference compound] | 5.32 ± 0.68 |  |  |  |  |  |  |  |  |  |  |  |  |  |  |  |  |  |  |
| O=C1c2ccccc2C(=O)N1CCc1csc(Nc2ccc(C(F)(F)F)cc2)n1 [Compound 4c, 2-(2-(2-(4-(Trifluoromethyl)phenylamino)thiazol-4-yl)ethyl)isoindoline-1,3-dione] | 13 | 77.5 ± 13.7 | 1.10 | 75.2 ± 6.71 | 1.13 | 46.6 ± 25.4 | 1.82 | 0.018 | 38.5 | 14 ± 1.56 | 6.07 | 170 to 172 | mixed type I inhibition | 4.54 | 84.9 ± 18.2 |  |  |  |  |
| O=C1c2ccccc2C(=O)N1CCc1csc(Nc2c(Cl)cc(Cl)cc2Cl)n1 [Compound 4h, 2-(2-(2-(2,4,6-Trichlorophenylamino)thiazol-4-yl)ethyl)isoindoline-1,3-dione] | 16.6 ± 2.06 |  |  | 120 ± 36 |  | 48.5 ± 21.4 |  |  |  | 57.1 ± 19.4 |  | 168 to 169 |  |  |  |  |  |  |  |
| CC(=O)c1ccc(Nc2nc(CCN3C(=O)c4ccccc4C3=O)cs2)cc1 [Compound 4i, 2-(2-(2-(4-Acetylphenylamino)thiazol-4-yl)ethyl)isoindoline-1,3-dione] | 25.6 ± 1.78 | 87.7 ± 22 |  | 74.1 ± 12 |  | 44.5 ± 20.2 |  |  |  | 62.9 ± 5.75 |  |  |  |  | 99 ± 21.2 |  |  |  |  |
| Cc1cc(C)cc(Nc2nc(CCN3C(=O)c4ccccc4C3=O)cs2)c1 [Compound 4f, 2-(2-(2-(3,5-Dimethylphenylamino)thiazol-4-yl)ethyl)isoindoline-1,3-dione] | 49.9 ± 0.98 | 86.4 ± 12.2 |  | 66.5 ± 9.8 |  | 13.2 ± 4.77 |  |  |  | 25.6 ± 3.63 |  |  |  |  | 101 ± 12.2 |  |  |  |  |
| NS(=O)(=O)c1ccc(Nc2nc(CCN3C(=O)c4ccccc4C3=O)cs2)cc1 [Compound 4g, 4-(4-(2-(1,3-Dioxoisoindolin-2-yl)ethyl)thiazol-2-ylamino)benzenesulfonamide] | 64.9 ± 7.75 | 9.66 ± 1.4 | 1.49 | 19.8 ± 1.4 | 0.72 | 83.3 ± 26.6 | 0.17 |  |  |  |  | > 260 |  |  | 14.3 ± 2.1 |  |  |  |  |
| O=C1c2ccccc2C(=O)N1CCc1csc(Nc2ccc(F)cc2)n1 [Compound 4a, 2-(2-(2-(4-Fluorophenylamino)thiazol-4-yl)ethyl)isoindoline-1,3-dione] | 29.4 ± 3.13 | 110 ± 24.5 |  | 82.3 ± 2.18 |  | 59.6 ± 4.63 |  |  |  | 50.7 ± 3.32 |  |  |  |  | 74.2 ± 12.2 |  |  |  |  |
| O=C1c2ccccc2C(=O)N1CCc1csc(Nc2ccc(Cl)cc2)n1 [Compound 4b, 2-(2-(2-(4-Chlorophenylamino)thiazol-4-yl)ethyl)isoindoline-1,3-dione] | 46.5 ± 4.85 | 86.5 ± 10.7 |  | 61.7 ± 1.56 |  | 12.2 ± 4.56 |  |  |  | 18.1 ± 0.94 |  |  |  |  | 66.2 ± 4.17 |  |  |  |  |
| N.N.[Cl][Pt][Cl] [cisplatin, reference compound] |  |  |  |  |  |  |  |  |  |  |  |  |  |  | 8.47 ± 1.96 | 15.6 ± 2 | 1.73 ± 0.17 | 1.43 ± 0.4 | 5.41 ± 0.6 |
| COc1cc(Nc2nc(CCN3C(=O)c4ccccc4C3=O)cs2)cc(OC)c1OC [Compound 4d, 2-(2-(2-(3,4,5-Trimethoxyphenylamino)thiazol-4-yl)ethyl)isoindoline-1,3-dione] | 22.9 ± 1.59 | 48.9 ± 13.2 |  | 46.1 ± 7.28 |  | 8.21 ± 2.37 |  |  |  | 23.7 ± 5.23 |  |  |  |  | 46.8 ± 2.05 |  |  |  |  |
| O=C1c2ccccc2C(=O)N1CCc1csc(Nc2cccc3ccccc23)n1 [Compound 4e, 2-(2-(2-(Naphthalen-1-ylamino)thiazol-4-yl)ethyl)isoindoline-1,3-dione] | 15.6 ± 0.16 | 76.4 ± 11.1 | 1.34 | 80 ± 16.2 | 1.28 | 33.2 ± 12 | 3.09 |  |  | 41.1 ± 3.13 | 2.50 | 161 to 162 |  |  | 103 ± 30.7 |  |  |  |  |
